Measurements taken from PMC4434051, “Biological evaluation of new potential anticancer agent for tumour imaging and radiotherapy by two methods: ^99mTc-radiolabelling and EPR spectroscopy” (Biotechnology, Biotechnological Equipment, 2014).

Columns and labels:
[1] = cited from earlier work; for half-life: formerly reported
[2] = cited from earlier work
[3] = cited from earlier work; remark: listed apart in the source
[4] = EPR organ and blood distribution of SLENU after i.p. administration; assay type: in vivo, male albino non-inbred mice; conditions: i.p. 40 mg/kg
Protocol: For EPR experiments of SLENU (administrated i.p. at a dose of 40 mg/kg) blood samples were taken from the free-streaming blood of a male albino non-inbred mice and were collected into heparinized tubes containing PBS (pH = 7–7.4). […] Decay-corrected radioactivity in the blood was expressed as per cent injected dose in the blood, using the total blood volume as 7% of the body weight. Animal protocols have been approved by the Bulgarian/Indian Institutional Animals ethics Committee.
First biodistribution study for EPR experiments of SLENU in organ homogenates (liver, lungs, spleen, pancreas, brain, kidneys) and blood was evaluated in male albino non-inbred mice (35–40 g body weight, normal diet) as previously described by. Spin-labelled nitrosourea was administrated i.p. at a dose of 40 mg/kg. Animals were decapitated at appropriate time points following injection (10, 30, 60, 90 min and on 4 h, 24 h) and dissected. Tissues from lungs, liver, spleen, brain, kidneys, pancreas and blood were collected and processed immediately. For nitrosourea extraction, samples were weighed and homogenized in PBS (10% w/v) and centrifuged at 2000 g for 15 min. Supernatants were collected and the concentration of nitrosourea was evaluated by EPR spectroscopy. Before measuring the spin-labelled concentration, the samples were […] by K3[Fe(CN6)] (a spectroscopic broadening reagent), because of the fast reduction of the nitroxide function (10–20 min) in the tissues.

Lymphoma L1210 = test system: Lymphoma L1210; parameters: method as in PMID 19081996, PMID 19718801, PMID 20097958; conditions: C57BL/Lymphoma L1210 bearing mice; cited from earlier work

SMILES | half-life [1] | carbamoylating activity ([2]; EPR research) | carbamoylating activity relative to CCNU ([2]; formerly reported) | alkylating activity [3] | alkylating activity relative to CCNU ([3]; formerly reported) | time of maximum concentration in blood (EPR) ([4]; blood) | time of maximum concentration in brain (EPR) ([4]; brain homogenate) | time of maximum concentration in kidneys (EPR) ([4]; kidneys homogenate) | time of maximum concentration in liver (EPR) ([4]; liver homogenate) | time of maximum concentration in lungs (EPR) ([4]; lungs homogenate) | time of maximum concentration in pancreas (EPR) ([4]; pancreas homogenate) | time of maximum concentration in spleen (EPR) ([4]; spleen homogenate) | presence of spin-labelled nitrosourea in tissues (EPR) ([4]; within 24 h, all tissues studied) | optimal dose for anticancer activity (Lymphoma L1210) | τ0.5 [1]
O=NN(CCCl)C(=O)NC1CCCCC1 [CCNU, 1-(2-chloroethyl)-3-cyclohexyl-1-nitrosourea, reference compound] | 0.9 h | – | – | – | – | – | – | – | – | – | – | – | – | – | –
CCN(N=O)C(=O)NC1CC(C)(C)N([O])C(C)(C)C1 [SLENU, 1-ethyl-1-nitroso-3-[4-(2,2,6,6-tetramethylpiperidine-1-oxyl)]-urea] | 1.25 h | 54.46 ± 0.17 | high and comparable with that of CCNU | 0.008 A560/mmol/L/h | lower than that of CCNU | 60 min | 60 min | 60 min | 90 min | 30 min | 60 min | 60 min | complete absence | 45 mg/kg | 75 min
